From ChEMBL document CHEMBL1146526, “Two unusual acetogenins from the roots of Annona salzmanii” (J Nat Prod, 2003)
In brackets after ≈: the same amount, converted by molar mass.

What was measured:
KB = assay: Cytotoxicity against human KB cells; format: functional
[1] = Cytotoxicity against african green monkey Vero cells after 24 hrs; format: cell-based; conditions: chlorocebus sabaeus, read-out: ED50

Row | Structure (SMILES) | ED50 (KB) [×10⁻⁴ ug/ml] | CC50 at 24 h [1] [µg/mL] | EC50 (KB; Homo sapiens, KB, read-out: ED50 (the source's name)) [µg/mL]
1 | CC[C@]1(O)C[C@@H]2CN(CCc3c([nH]c4ccccc34)[C@@](C(=O)OC)(c3cc4c(cc3OC)N(C)[C@H]3[C@@](O)(C(=O)OC)[C@H](OC(C)=O)[C@]5(CC)C=CCN6CC[C@]43[C@@H]65)C2)C1 [VINBLASTINE] | 0.1 | > 0.1 | 
2 | CCCCC[C@H](O)[C@@H](O)CCC[C@@H](O)[C@@H]1CC[C@@H](C2CC(O)[C@@H]([C@@H](O)CCCCCCCCCCCCC3=CC(C)OC3=O)O2)O1 (stereo not given in full) [SALZMANOLIN] |  | 0.01 (≈ 0.0153 µM) | 0.001 (≈ 0.00153 µM)
3 | CCCCCCCCCC[C@@H](O)[C@@H](O)CC[C@H](O)[C@@H]1CC[C@@H]([C@@H](O)CCCCCCCCCCC(O)CC2=CC(C)(O)OC2=O)O1 (stereo not given in full) [PARISIN] | 1 |  | 
